From the SangsterLogP compilation

test: method code SF-AS, from PMID: 1608988; details: pH 7.3

Structure (SMILES)	logD
CCCCCCCOc1ccccc1NC(=O)OCCN1CCOCC1	3.99
CCCCCCCCOc1ccccc1NC(=O)OCCN1CCOCC1	4.43
CCCCOc1ccccc1NC(=O)OCCN1CCOCC1	2.73
CCCCOc1ccc(NC(=O)OCCN2CCOCC2)cc1	2.8
CCCCCCCOc1ccc(NC(=O)OCCN2CCOCC2)cc1	4.41
COc1cccc(NC(=O)OCCN2CCOCC2)c1	1.64
CCCOc1ccc(NC(=O)OCCN2CCOCC2)cc1	2.24
CCCCCCCOc1cccc(NC(=O)OCCN2CCOCC2)c1	4.73
CCCCCOc1ccccc1NC(=O)OCCN1CCOCC1	3.18
COc1ccccc1NC(=O)OCCN1CCOCC1	1.2
CCOc1ccc(NC(=O)OCCN2CCOCC2)cc1	1.63
CCOc1ccccc1NC(=O)OCCN1CCOCC1	1.76
CCCCCCCCOc1ccc(NC(=O)OCCN2CCOCC2)cc1	4.8
CCCCCCOc1ccc(NC(=O)OCCN2CCOCC2)cc1	3.96
CCCCCOc1ccc(NC(=O)OCCN2CCOCC2)cc1	3.41
CCCCCOc1cccc(NC(=O)OCCN2CCOCC2)c1	3.58
CCCOc1cccc(NC(=O)OCCN2CCOCC2)c1	2.5
CCCCCCOc1ccccc1NC(=O)OCCN1CCOCC1	3.68
CCCOc1ccccc1NC(=O)OCCN1CCOCC1	2.26
CCCCCCCCOc1cccc(NC(=O)OCCN2CCOCC2)c1	4.42
CCCCOc1cccc(NC(=O)OCCN2CCOCC2)c1	3.08
CCCCCCOc1cccc(NC(=O)OCCN2CCOCC2)c1	4.19
